How the values were obtained:
[1] = system: A549; assay: CCK-8 cell viability assay; format: cell-based; conditions: Homo sapiens, 48 h treatment, mean ± S.E.M., mutant Ras
Procedure: (§1) Human hepatoma (HepG2, Hep3B), human lung adenocarcinoma (A549, H838), and human myelogenous leukemia (K562) cell lines were obtained from American Type Culture Collection (Rockville, Md., USA). Human prostate cancer cell lines (LNCaP and DU145), human breast carcinoma (MCF-7), human bladder carcinoma (TSGH 8301) and human pancreas adenocarcinoma (BxPC-3) were obtained from BCRC (Bioresource Collection and Research Center, Hsinchu, Taiwan). HepG2, DU145 and MCF-7 cell lines were cultured in Minimum Essential Medium Alpha (Invitrogen/Gibco BRL, Grand Island, N.Y., USA). A549 cells were cultured in Dulbecco's modified Eagle's medium (Invitrogen/Gibco BRL). H838, TSGH 8301, BxPC-3 LNCaP and K562 cell lines were cultured in RPMI-1640 medium (Invitrogen/Gibco BRL). All cells were cultured at 37° C. in 5% CO2 in culture media supplemented with 10% fetal bovine serum (FBS) (Invitrogen/Gibco BRL) and 100 U/ml streptomycin and penicillin (Invitrogen/Gibco BRL). For treatment, cells were seeded in six-well plates at 6.25×10^5 cells/well. On the following day, the media was changed to serum-free media, and cells were serum-starved for 24 h. Compound 1 was dissolved in DMSO and diluted to the required concentration in serum-free medium. Cultures were then treated with diluted Compound 1 as indicated. After treatment, cells were washed with cold phosphate-buffered saline (PBS) and lysed using RIPA buffer containing phosphatase and protease inhibitors.
(§2) Cell Counting Kit-8 (CCK-8) allows sensitive colorimetric assays for the determination of cell viability in cell proliferation and cytotoxicity assays. The detection sensitivity of CCK-8 is higher than the other tetrazolium salts such as MTT, XTT, MTS or WST-1.
(§3) Cell viability was measured using Cell Counting Kit-8 (CCK-8, Enzo Life Sciences, Farmingdale, N.Y.). In this assay, WST-8 is reduced by dehydrogenases in cells to produce a yellow-colored product (formazan), which is soluble in culture medium. The amount of formazan generated is directly proportional to the number of living cells. After treatment, CCK-8 solution was added to each well and incubated for 4 h. The concentration of formazan was measured with a spectrophotometer at an absorbance wavelength of 450 nm. Cell viability was expressed as a percentage of the corresponding control.
(§4) To determine whether the cytotoxic effects of Compound 1 correlate with the presence of Ras mutations, cell lines derived from human lung cancer (A549 and H838), liver cancer (HepG2 and Hep3B), and leukemia (K562 and THP-1) with wild-type Ras (H838, Hep3B, and K562) or mutant Ras (A549, HepG2, and THP-1) were used. Cell viability was measured after 48 h of Compound 1 treatment.

[2] = system: Hep3B; assay: CCK-8 cell viability assay; format: cell-based; conditions: Homo sapiens, 48 h treatment, mean ± S.E.M., wild-type Ras
Procedure: as §1, §2, §3, §4

[3] = system: HepG2; assay: CCK-8 cell viability assay; format: cell-based; conditions: Homo sapiens, 48 h treatment, mean ± S.E.M., mutant Ras
Procedure: as §1, §2, §3, §4

[4] = system: K562; assay: CCK-8 cell viability assay; format: cell-based; conditions: Homo sapiens, 48 h treatment, mean ± S.E.M., wild-type Ras
Procedure: as §1, §2, §3, §4

[5] = system: H838; assay: CCK-8 cell viability assay; format: cell-based, human; conditions: 48 h treatment, mean ± S.E.M., wild-type Ras
Procedure: as §1, §2, §3, §4

[6] = system: THP-1; assay: CCK-8 cell viability assay; format: cell-based; conditions: Homo sapiens, 48 h treatment, mean ± S.E.M., mutant Ras
Procedure: as §2, §3, §4

[7] = system: Ras processing; assay: Immunoblot of unprocessed and processed Ras in cancer cell lines; format: cell-based, human; conditions: H838 cells, competition assay, 24 h
Procedure: FIG. 2A-C show illustrative effective results of the exemplary Compound 1 inhibiting Ras processing in cancer cell lines. (2A) A549 and H838 cells were treated with different concentrations of Compound 1 and grown under serum (10% FBS) or serum-free (no FBS) conditions for 24 h. (2B) H838, (2C) HepG2 and K562 cells were treated with different concentrations of Compound 1 and grown under serum-free (no FBS) conditions for 24 h. Whole cell lysates were then immunoblotted with a Ras antibody. A duplicate membrane was probed with a GAPDH antibody. The relative expression level of unprocessed to processed Ras was quantified by densitometry. The experiments were conducted three times. […]
FIG. 3A-C show illustrative effective results of Compound 1 inhibiting the prenylation activity of farnesyltransferase in vitro and competes with FPP within cells. […] The relative expression level of unprocessed to processed Ras was quantified by densitometry. […]
Sixty micrograms of total protein lysates measured using a Bradford assay (Sigma-Aldrich, St. Louis, Mo., USA) were resolved on 12.5% SDS-polyacrylamide gels. […] Secondary antibodies were conjugated to horseradish peroxidase, which was detected using a 3,3′-diaminobenzidine substrate kit (Vector Laboratories, Burlingame, Calif.). The immunoreactive bands were quantified by densitometry using Image-Pro Plus software (Media Cybernetics, Silver Spring, Md.). […]

Structure (SMILES)	IC50 [1] [µM]	IC50 [2] [µM]	IC50 [3] [µM]	IC50 ([5]; Homo sapiens, NCI-H838, 48 h) [µM]	also measured
COC1=C(OC)C(O)C(C/C=C(\C)CC/C=C(\C)CCC=C(C)C)C(C)C1=O (centres unmarked) [Compound 1, 4-hydroxy-2,3-dimethoxy-6-methyl-5-(3,7,11-trimethyldodeca-2,6,10-trienyl)cyclohex-2-enone]	3.24	3.74	6.42	3.32	IC50 [4]: 5.12 µM; IC50 [5]: 2.96 ± 0.05 µM; IC50 [6]: 2.22 µM
COC1=C(OCc2ccccc2)C(=O)C(C)C(C/C=C(\C)CC/C=C(\C)CCC=C(C)C)C1O (centres unmarked) [Compound 30]	22.6 ± 2.24	9.06 ± 3.03	27 ± 6.06	25.6 ± 6.54	
CC(C)=CCC/C(C)=C/CC/C(C)=C/COP(=O)(O)OP(=O)(O)O [FPP, farnesyl pyrophosphate]					concentration of FPP that neutralized the effect of Compound 1 on Ras processing [7]: ≥ 10 µM
COC1=C(OC)C(OC(C)=O)C(C/C=C(\C)CC/C=C(\C)CC2CC(C)C(=O)O2)C(C)C1=O (centres unmarked) [Compound 28]				> 100	
COC1=C(OC)C(OC(C)=O)C(C/C=C(\C)CC/C=C(\C)CCC=C(C)C)C(C)C1=O (centres unmarked) [Compound 29]				> 100	
COC1=CC(O)C(C/C=C(\C)CC/C=C(\C)CCC=C(C)C)C(C)C1=O (centres unmarked) [Compound 26, 4-hydroxy-2-methoxy-6-methyl-5-((2E,6E)-3,7,11-trimethyldodeca-2,6,10-trienyl)cyclohex-2-enone]				11.3 ± 4.17	
COC1=C(OC)C(O)C(C/C=C(\C)CCC(=O)O)C(C)C1=O (centres unmarked) [Compound 27]				> 100	
COC1=C(OCc2ccccc2)C(O)C(C/C=C(\C)CC/C=C(\C)CCC=C(C)C)C(C)C1=O (centres unmarked) [Compound 31]	6.68 ± 0.75	7.46 ± 7.06	8.98 ± 0.97	3.41 ± 1.43	

— patent US20150018296A1, “THERAPEUTIC METHODS AND COMPOSITIONS UTILIZING CYCLOHEXENONE COMPOUNDS” (Golden Biotechnology Corporation, priority 2013, published 2015)
